Assay results from ChEMBL document CHEMBL1201862, “PubChem BioAssay data set” (2004).
Counter-ions that a name gives are not always drawn.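 Growth conditions: 96-well plates. Treatment: test compound, 48 hours, 5 concentrations. Analysis: linear interpolation between bracketing concentrations; unreached endpoints set to highest concentration. GI50: concentration for 50% inhibition of growth.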 Calls of active or inactive are those of the source. Rule as the data show it: active = GI50 up to about 1.1 µM and inactive = higher.

Columns and labels:
Assay in all cases: inhibition of tumour cell growth, NCI panel, 48 h
UACC-257 = tested on: UACC-257
Malme-3M = tested on: Malme-3M
HCT-15 = tested on: HCT-15
SW-620 = tested on: SW-620
M14 = tested on: M14
SN12C = tested on: SN12C
MOLT-4 = tested on: MOLT-4
NCI-H522 = tested on: NCI-H522
TK-10 = tested on: TK-10
NCI-H226 = tested on: NCI-H226
SF-268 = tested on: SF-268
OVCAR-3 = tested on: OVCAR-3
A549 = tested on: A549
MDA-MB-435 = tested on: MDA-MB-435
SNB-75 = tested on: SNB-75
K562 = tested on: K562
OVCAR-5 = tested on: OVCAR-5
OVCAR-8 = tested on: OVCAR-8
U-251 = tested on: U-251
ACHN = tested on: ACHN

| Compound | GI50 (UACC-257) | GI50 (Malme-3M) | GI50 (HCT-15) [µM] | GI50 (SW-620) | GI50 (M14) | GI50 (SN12C) | GI50 (MOLT-4) | GI50 (NCI-H522) | GI50 (TK-10) | GI50 (NCI-H226) | GI50 (SF-268) | GI50 (OVCAR-3) | GI50 (A549) | GI50 (MDA-MB-435) | GI50 (SNB-75) | GI50 (K562) | GI50 (OVCAR-5) | GI50 (OVCAR-8) | GI50 (U-251) | GI50 (ACHN) |
| --- | --- | --- | --- | --- | --- | --- | --- | --- | --- | --- | --- | --- | --- | --- | --- | --- | --- | --- | --- | --- |
| CC(=O)N(C)c1ccc(Nc2cc(C)nc3ccc4nc[nH]c4c23)cc1 [ACODAZOLE HYDROCHLORIDE] | 12.7 µM (inactive) | 7.64 µM (inactive) | 23 | 4.88 µM (inactive) | 10.8 µM (inactive) | 7.21 µM (inactive) | 1.72 µM (inactive) | 7.38 µM (inactive) | 13.6 µM (inactive) | 6.27 µM (inactive) | 8.11 µM (inactive) | 8.63 µM (inactive) | 7.59 µM (inactive) | 8.51 µM (inactive) | 9.33 µM (inactive) | 8.07 µM (inactive) | 12.1 µM (inactive) | 5.97 µM (inactive) | 8.09 µM (inactive) | 4.5 µM (inactive) |
| C/C(=N\NS(=O)(=O)c1ccc(C)cc1)C(CN(C)C)C(c1ccccc1)c1c(O)c2ccccc2oc1=O (stereo not given) | > 100 µM (inactive) | > 100 µM (inactive) | > 100 | > 69.3 µM (inactive) | > 100 µM (inactive) | > 100 µM (inactive) | > 100 µM (inactive) | > 100 µM (inactive) | > 100 µM (inactive) | > 100 µM (inactive) | > 100 µM (inactive) | > 100 µM (inactive) | > 100 µM (inactive) | > 100 µM (inactive) | > 51.9 µM (inactive) | > 84.5 µM (inactive) | > 100 µM (inactive) | > 100 µM (inactive) | > 100 µM (inactive) | > 100 µM (inactive) |
| O=S1(=O)OCc2ccccc21 | > 100 µM (inactive) | > 100 µM (inactive) | 59.3 | 85.7 µM (inactive) | > 100 µM (inactive) | > 100 µM (inactive) | 15.7 µM (inactive) | 79.8 µM (inactive) | > 100 µM (inactive) | 97.5 µM (inactive) | > 100 µM (inactive) | 32.5 µM (inactive) | > 100 µM (inactive) | 58.1 µM (inactive) | 42.8 µM (inactive) | > 100 µM (inactive) | > 100 µM (inactive) | > 100 µM (inactive) | > 100 µM (inactive) | 61.5 µM (inactive) |
